# Results reported in patent US5164381A, “Pharmacologically active 1,5-diaryl-3-substituted pyrazoles and method for synthesizing the same” (Ortho Pharmaceutical Corporation, priority 1991, dated 1992).
# Where two headings read alike, the source gives them in different places.
# Legend:
# [1] = system: Lewis strain laboratory rats; assay: In vivo alleviation of inflammation: polyarthritis (adjuvant, Mycobacterium butyricum) in rats, inhibition of paw volume increase; conditions: Rattus norvegicus, po
# [2] = system: total cells in synovial fluid of dog knee joint; assay: Immune complex-induced synovitis in the dog knee joint: cellular infiltrate; type: in vivo, Mongrel dogs; conditions: for cellular infiltrate (in words): 100 mg/kg orally; for cellular infiltrate (in words) / total cell number / cellular infiltration (in words): dog; for total cell number / cellular infiltration (in words): i.v. 25 mg/kg or orally
# Protocol: (§1) The accuracy of the puncture was assured by the aspiration of clear, viscous synovial fluid (time 0 sample). The syringe was removed and immune complexes (see below) were injected into the synovial space. The synovial space was re-entered at various time intervals and synovial fluid was withdrawn. The volume of fluid was recorded and then added to 3.0 ml of 0.3% saline. A sample was removed and the number of cells present counted with the use of a hemocytometer and microscope to enumerate the total number of cells in the joint. The remaining sample was centrifuged at 1000×g for 10 minutes and the supernatant analyzed for prostaglandin E2 levels and leukotriene B4 levels.
# (§2) To prepare the immune complex, two hundred milligrams of partially purified dog IgG was dissolved in 20 ml 0.9% sterile sodium chloride. The solution was clarified by centrifugation at 2230×G at 20° C. for 10 minutes. A 3 ml volume of the 10.0 mg/ml solution of dog IgG was mixed with 1 ml rabbit anti-dog IgG serum and incubated at room temperature for 20 minutes.
# (§3) Four milliliters of saturated ammonium sulfate were added to the mixture to precipitate the complex and all free dog IgG and rabbit gamma globulin. The sample was then centrifuged (as above) and the pellet resuspended in 10 ml 0.9% sterile saline. One ml of this solution was injected into a knee joint.
# (§4) Following the intra-articular administration of immune complexes synovial fluid samples were taken at 30 minutes, 1,2,4 and 24 hours, alternating knees for sampling (except at 24 hours when both knees were sampled).
# (§5) The articular joint was entered and a zero hour synovial fluid sample was removed. 1 ml of immune complexes was injected into the synovial joint of both legs. […] Synovial fluid samples were taken at 30 minutes, 1, 2 and 4 hours. All samples were analyzed for total granulocyte count using a laser flow cytometer. Prostaglandin and leukotriene concentrations were determined with standard RIA techniques.
# [3] = system: Prostaglandin E2; assay: Immune complex-induced synovitis in the dog knee joint: prostaglandin E2 levels; type: in vivo, Mongrel dogs; conditions: for Prostaglandin E2 Levels: radioimmunoassay; for levels of PGE2 in the synovial fluid (in words): 100 mg/kg orally; for levels of PGE2 in the synovial fluid (in words) / PGE2 levels (in words): dog; for PGE2 levels (in words): i.v. 25 mg/kg or orally
# Protocol: as §1, §2, §3, §4, §5
# [4] = system: Leukotriene B4; assay: Immune complex-induced synovitis in the dog knee joint: leukotriene B4 levels; type: in vivo, Mongrel dogs; conditions: for levels of LTB4 in the synovial fluid (in words): 100 mg/kg orally; for levels of LTB4 in the synovial fluid (in words) / LTB4 levels (in words): dog; for LTB4 levels (in words): i.v. 25 mg/kg or orally
# Protocol: as §1, §2, §3, §4, §5
# [5] = system: bronchospasm / LTB4; assay: Arachidonic acid-induced bronchospasm and LTB4 blood levels in anesthetized guinea pigs; type: in vivo; conditions: administered orally, guinea pigs
# Protocol: Intravenous administration of 10 mg/kg AA to anesthetized guinea pigs pretreated with indomethacin (10 mg/kg) and propranolol (0.1 mg/kg) results in a sustained bronchospasm which is associated with increased blood levels of LTB4. […] In the dog, intraarticular injection of rabbit anti-dog-dog IgG immune complexes into the knee joint results in an acute synovitis characterized by an influx of inflammatory cells into the joint space as well as an increase in synovial fluid levels of PGE2 and LTB4.
# [6] = in vivo; conditions: rat, in vivo
# Text: (§6) All NSAIDs are inhibitors of CO and their potency against this enzyme activity correlates well with clinical doses used in rheumatic diseases. There is also a correlation between CO inhibition (decreased PGE2) and the ability to induce gastric lesions in the fasted rat model. All NSAIDs induce at least some gastrointestinal lesions within their therapeutic range.
# [7] = system: gastrointestinal tract; assay: Ulcerogenicity in rats (gastric lesions, fasted rat model); conditions: rats
# Text: as §6
# [8] = system: gastrointestinal; assay: Gastrointestinal side effects in dogs after one week; type: in vivo; conditions: doses up to 2700 mg/kg
# Text: as §6
# [9] = system: cyclooxygenase (CO); assay: Inhibition of cyclooxygenase (CO)
# [10] = system: 5-lipoxygenase (5-LO); assay: Inhibition of 5-lipoxygenase (5-LO)
# [11] = system: cyclooxygenase (CO); conditions: cited from earlier work
# [12] = system: gastrointestinal tract; conditions: suboptimal antiinflammatory doses; cited from earlier work
compound,measurement,setting,value
"COc1ccc(-n2nc(CCC(=O)N(C)O)cc2-c2ccc(Cl)cc2)cc1 [Compound 3, 3-[5-(4-Chlorophenyl)-1-(4-methoxyphenyl)-3-pyrazolyl]-N-hydroxy-N-methylpropanamide]",ED50,"[1]; adjuvant rat, read-out: dose which inhibits the inflammatory response of the adjuvant rat by 50 percent (ED50)",3 mg/kg
same,ED50,"[1]; rat, read-out: ED50 (effective dose to obtain a 50% inhibition of inflammation)",4.1 mg/kg
same,Cellular Infiltrate Total Cells (× 10^6),"[2]; 25 mg/kg p.o., 0.5 HR",0.12 ± 0.04 × 10^6
same,Cellular Infiltrate Total Cells (× 10^6),"[2]; 25 mg/kg p.o., 1 HR",0.39 ± 0.19 × 10^6
same,% I (inhibition) of total cells,"[2]; 25 mg/kg p.o., 2 HR",7.4%
same,Cellular Infiltrate Total Cells (× 10^6),"[2]; 25 mg/kg p.o., 2 HR",5.74 ± 2.5 × 10^6
same,% I (inhibition) of total cells,"[2]; 25 mg/kg p.o., 4 HR",6.5%
same,Cellular Infiltrate Total Cells (× 10^6),"[2]; 25 mg/kg p.o., 4 HR",46.3 ± 27.9 × 10^6
same,cellular infiltrate (in words),[2],reduces the cellular infiltrate
same,Cellular Infiltrate Total Cells (× 10^6),"[2]; 100 mg/kg p.o., 0.5 HR",0.26 ± 0.23 × 10^6
same,Cellular Infiltrate Total Cells (× 10^6),"[2]; 100 mg/kg p.o., 1 HR",0.13 ± 0.07 × 10^6
same,% I (inhibition) of total cells,"[2]; 100 mg/kg p.o., 2 HR",78%
same,Cellular Infiltrate Total Cells (× 10^6),"[2]; 100 mg/kg p.o., 2 HR",1.35 ± 0.55 × 10^6
same,% I (inhibition) of total cells,"[2]; 100 mg/kg p.o., 4 HR",55.2%
same,Cellular Infiltrate Total Cells (× 10^6),"[2]; 100 mg/kg p.o., 4 HR",22.2 ± 6.6 × 10^6
same,total cell number / cellular infiltration (in words),[2],significantly inhibits
same,Prostaglandin E2 Levels,"[3]; 25 mg/kg p.o., 1 Hr",2.34 ± 1 ng/mL
same,% I (inhibition) of prostaglandin E2 levels,"[3]; 25 mg/kg p.o., 2 Hr",38.2%
same,Prostaglandin E2 Levels,"[3]; 25 mg/kg p.o., 2 Hr",2.96 ± 0.92 ng/mL
same,% I (inhibition) of prostaglandin E2 levels,"[3]; 25 mg/kg p.o., 4 Hr",44.6%
same,Prostaglandin E2 Levels,"[3]; 25 mg/kg p.o., 4 Hr",2.27 ± 0.76 ng/mL
same,levels of PGE2 in the synovial fluid (in words),[3],reduces
same,Prostaglandin E2 Levels,"[3]; 100 mg/kg p.o., 0.5 Hr",1.8 ± 1.29 ng/mL
same,Prostaglandin E2 Levels,"[3]; 100 mg/kg p.o., 1 Hr",1.5 ± 1.05 ng/mL
same,% I (inhibition) of prostaglandin E2 levels,"[3]; 100 mg/kg p.o., 2 Hr",97.9%
same,Prostaglandin E2 Levels,"[3]; 100 mg/kg p.o., 2 Hr",0.1 ± 0.08 ng/mL
same,% I (inhibition) of prostaglandin E2 levels,"[3]; 100 mg/kg p.o., 4 Hr",42.4%
same,Prostaglandin E2 Levels,"[3]; 100 mg/kg p.o., 4 Hr",2.36 ± 0.53 ng/mL
same,PGE2 levels (in words),[3],significantly inhibits
same,Leukotriene B4,"[4]; 25 mg/kg p.o., 1 Hr",3.00 ± 1.2 ng/ml Synovial Fluid
same,Leukotriene B4,"[4]; 25 mg/kg p.o., 2 Hr",4.60 ± 2.10 ng/ml Synovial Fluid
same,Leukotriene B4,"[4]; 25 mg/kg p.o., 4 Hr",1.20 ± 0.6 ng/ml Synovial Fluid
same,levels of LTB4 in the synovial fluid (in words),[4],reduces
same,% I (inhibition) of leukotriene B4,"[4]; 100 mg/kg p.o., 0.5 Hr",25%
same,Leukotriene B4,"[4]; 100 mg/kg p.o., 0.5 Hr",0.93 ± 0.26 ng/ml Synovial Fluid
same,% I (inhibition) of leukotriene B4,"[4]; 100 mg/kg p.o., 1 Hr",69%
same,Leukotriene B4,"[4]; 100 mg/kg p.o., 1 Hr",0.80 ± 0.09 ng/ml Synovial Fluid
same,% I (inhibition) of leukotriene B4,"[4]; 100 mg/kg p.o., 2 Hr",39%
same,Leukotriene B4,"[4]; 100 mg/kg p.o., 2 Hr",2.46 ± 0.94 ng/ml Synovial Fluid
same,% I (inhibition) of leukotriene B4,"[4]; 100 mg/kg p.o., 4 Hr",37%
same,Leukotriene B4,"[4]; 100 mg/kg p.o., 4 Hr",0.88 ± 0.23 ng/ml Synovial Fluid
same,inhibition of leukotriene production (in words),"[4]; administered orally, dogs",effective inhibitor of leukotriene production
same,LTB4 levels (in words),[4],significantly inhibits
same,inhibition of leukotriene production (in words),[5],effective inhibitor of leukotriene production
same,TD50,[6],173 mg/kg
same,selectivity ratio,[6],58
same,ulcerogenicity in the gastrointestinal tract (in words),[7],reduced ulcerogenic activity
same,ulcerogenicity in the gastrointestinal tract (in words),[7]; listed as compound 3,lack of ulcerogenicity in the gastrointestinal tract
same,significant gastrointestinal side effects (in words),[8],no significant gastrointestinal side effects
same,inhibition of cyclooxygenase (CO) (in words),[9],inhibits both the cyclooxygenase (CO) and 5-lipoxygenase (5-LO) enzymes
same,inhibition of 5-lipoxygenase (5-LO) (in words),[10],inhibits both the cyclooxygenase (CO) and 5-lipoxygenase (5-LO) enzymes
"COc1ccc2cc([C@H](C)C(=O)O)ccc2c1 [Naproxen, reference compound]",cellular infiltrate (in words),[2],inhibited the cell infiltration
same,Cellular Infiltrate Total Cells (× 10^6),"[2]; 100 mg/kg p.o., 0.5 HR",0.32 ± 0.11 × 10^6
same,Cellular Infiltrate Total Cells (× 10^6),"[2]; 100 mg/kg p.o., 1 HR",0.02 ± 0.02 × 10^6
same,% I (inhibition) of total cells,"[2]; 100 mg/kg p.o., 2 HR",36.6%
same,Cellular Infiltrate Total Cells (× 10^6),"[2]; 100 mg/kg p.o., 2 HR",2.69 ± 0.63 × 10^6
same,% I (inhibition) of total cells,"[2]; 100 mg/kg p.o., 4 HR",44.2%
same,Cellular Infiltrate Total Cells (× 10^6),"[2]; 100 mg/kg p.o., 4 HR",27.6 ± 24 × 10^6
same,total cell number / cellular infiltration (in words),[2],inhibits
same,levels of PGE2 in the synovial fluid (in words),[3],inhibited
same,Prostaglandin E2 Levels,"[3]; 100 mg/kg p.o., 0.5 Hr",0.83 ± 0.24 ng/mL
same,Prostaglandin E2 Levels,"[3]; 100 mg/kg p.o., 1 Hr",1.67 ± 0.73 ng/mL
same,% I (inhibition) of prostaglandin E2 levels,"[3]; 100 mg/kg p.o., 2 Hr",62.0%
same,Prostaglandin E2 Levels,"[3]; 100 mg/kg p.o., 2 Hr",1.88 ± 0.86 ng/mL
same,% I (inhibition) of prostaglandin E2 levels,"[3]; 100 mg/kg p.o., 4 Hr",44.9%
same,Prostaglandin E2 Levels,"[3]; 100 mg/kg p.o., 4 Hr",2.2 ± 0.97 ng/mL
same,PGE2 levels (in words),[3],inhibits PGE 2 levels
same,levels of LTB4 in the synovial fluid (in words),[4],increased the LTB4 levels
same,% I (inhibition) of leukotriene B4,"[4]; 100 mg/kg p.o., 0.5 Hr",10.5%
same,Leukotriene B4,"[4]; 100 mg/kg p.o., 0.5 Hr",1.11 ± 0.36 ng/ml Synovial Fluid
same,% I (inhibition) of leukotriene B4,"[4]; 100 mg/kg p.o., 1 Hr",-26.7%
same,Leukotriene B4,"[4]; 100 mg/kg p.o., 1 Hr",3.27 ± 1.53 ng/ml Synovial Fluid
same,% I (inhibition) of leukotriene B4,"[4]; 100 mg/kg p.o., 2 Hr",-47.4%
same,Leukotriene B4,"[4]; 100 mg/kg p.o., 2 Hr",5.94 ± 1.33 ng/ml Synovial Fluid
same,% I (inhibition) of leukotriene B4,"[4]; 100 mg/kg p.o., 4 Hr",-140%
same,Leukotriene B4,"[4]; 100 mg/kg p.o., 4 Hr",3.36 ± 1.28 ng/ml Synovial Fluid
same,LTB4 levels (in words),[4],does not decrease
same,inhibition of cyclooxygenase enzyme by NSAIDs (in words),[11],only inhibit the cyclooxygenase enzyme
same,ulcers in rats (in words),[12],significant ulcers
